From patent US9199981B2 (NOVARTIS AG, priority 2011, dated 2015) come the findings set out here.

Chain of c-kit (P10721 26-976): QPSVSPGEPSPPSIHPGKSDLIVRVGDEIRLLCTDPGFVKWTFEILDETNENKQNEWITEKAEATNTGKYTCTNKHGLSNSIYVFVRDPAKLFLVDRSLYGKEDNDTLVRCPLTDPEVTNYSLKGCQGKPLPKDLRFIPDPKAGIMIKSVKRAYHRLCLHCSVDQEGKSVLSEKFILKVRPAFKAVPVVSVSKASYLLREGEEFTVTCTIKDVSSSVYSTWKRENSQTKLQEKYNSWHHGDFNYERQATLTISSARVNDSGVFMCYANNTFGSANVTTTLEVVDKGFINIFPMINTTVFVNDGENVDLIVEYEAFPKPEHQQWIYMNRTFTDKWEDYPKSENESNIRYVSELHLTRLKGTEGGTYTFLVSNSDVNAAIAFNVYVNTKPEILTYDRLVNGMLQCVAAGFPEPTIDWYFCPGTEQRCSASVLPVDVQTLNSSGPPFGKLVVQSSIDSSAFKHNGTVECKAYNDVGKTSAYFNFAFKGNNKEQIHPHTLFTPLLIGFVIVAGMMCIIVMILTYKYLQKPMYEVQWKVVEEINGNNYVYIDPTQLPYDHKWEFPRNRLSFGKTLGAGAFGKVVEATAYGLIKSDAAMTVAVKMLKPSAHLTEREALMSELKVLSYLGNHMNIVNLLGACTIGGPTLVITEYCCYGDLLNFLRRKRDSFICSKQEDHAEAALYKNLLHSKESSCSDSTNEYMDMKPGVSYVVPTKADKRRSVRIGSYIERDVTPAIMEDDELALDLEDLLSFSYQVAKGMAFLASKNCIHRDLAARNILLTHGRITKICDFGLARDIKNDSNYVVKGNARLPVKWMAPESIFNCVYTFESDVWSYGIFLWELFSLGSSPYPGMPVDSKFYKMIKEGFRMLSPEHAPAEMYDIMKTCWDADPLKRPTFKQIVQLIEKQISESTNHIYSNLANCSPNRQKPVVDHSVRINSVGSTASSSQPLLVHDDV

The first test concerns the target c-kit (Homo sapiens (Human), UniProt P10721). In words: Mo7e cell proliferation assay (SCF dependent proliferation). In kind it is cell-based. To be noted: Mo7e cells stimulated with human recombinant SCF, 48 hours, 1% FBS. Here is the method:
Compounds of Formula (I) and Formula (II) provided herein were assayed to measure their capacity to inhibit c-kit and PDGFR kinases using the appropriate assay described below: c-Kit inhibition was evaluated using the Mo7e cell proliferation assay, and PDGFR inhibition was evaluated using the Rat A10 cell proliferation assay and the Human TG/HA-VSMC cell proliferation assay.
Mo7e Cell Proliferation Assay
The compounds of Table 1 and Table 2 were tested for inhibition of SCF dependent proliferation using human Mo7e cells which endogenously express c-kit in a 384 well format. […] After 48 hours of incubation at 37° C., cell viability was measured by adding 25 uL of CellTiter Glo (Promega) to the cells and the luminescence was measured by a CLIPR CCD camera (Molecular Devices).
The IC50 value is given as that concentration of the test compound in question that provoke a response halfway between the baseline and maximum responses.
On to `Cc1ccc(-c2noc([C@H]3CC3(F)F)n2)cc1NC(=O)c1cnc2ccccn12` (stereo in doubt) [F87, N-(5-(5-(2,2-difluorocyclopropyl)-1,2,4-oxadiazol-3-yl)-2-methylphenyl)imidazo[1,2-a]pyridine-3-carboxamide], for which the IC50 (in general, the concentration needed to halve the response being measured) worked out at 46 nM.
Take `Cc1ccc(-c2noc([C@@H]3CC3(F)F)n2)cc1NC(=O)c1cnc2ccccn12` (stereo in doubt) [F88, N-(5-(5-(2,2-difluorocyclopropyl)-1,2,4-oxadiazol-3-yl)-2-methylphenyl)imidazo[1,2-a]pyridine-3-carboxamide]: the half-maximal inhibitory concentration (IC50) was determined as 66 nM.
Same read-out and setting: then `Cc1ccc(-c2nc(C3CC(F)(F)C3)no2)cc1NC(=O)c1cnc2ccccn12` [F1], with 24 nM.
`Cc1ccc(-c2noc(C3CC(=NO)C3)n2)cc1NC(=O)c1cnc2ccccn12` (stereo not drawn) [F4]: the IC50 was 22 nM.
In the case of `Cc1ccc(-c2noc(C3CCC(F)(F)CC3)n2)cc1NC(=O)c1cnc2ccccn12` [F5], the half-maximal inhibitory concentration (IC50) is 24 nM.
As for `Cc1ccc(-c2noc([C@H]3C[C@@](C)(O)C3)n2)cc1NC(=O)c1cnc2ccccn12` [F6, N-(5-(5-((1s,3s)-3-hydroxy-3-methylcyclobutyl)-1,2,4-oxadiazol-3-yl)-2-methylphenyl)imidazo[1,2-a]pyridine-3-carboxamide], the IC50 was found to be 119 nM.
In the case of `CON=C1CC(c2nc(-c3ccc(C)c(NC(=O)c4cnc5ccccn45)c3)no2)C1` (stereo not drawn) [F7, N-(5-(5-(3-(methoxyimino)cyclobutyl)-1,2,4-oxadiazol-3-yl)-2-methylphenyl)imidazo[1,2-a]pyridine-3-carboxamide], the half-maximal inhibitory concentration (IC50) was found to be 15 nM.
Still for that read-out and setting: the figure for `Cc1ccc(-c2noc(C3CC4(C3)OCCO4)n2)cc1NC(=O)c1cnc2ccccn12` [F8, N-(5-(5-(5,8-dioxaspiro[3.4]octan-2-yl)-1,2,4-oxadiazol-3-yl)-2-methylphenyl)imidazo[1,2-a]pyridine-3-carboxamide] is 55 nM; for `Cc1ccc(-c2noc(C3CC4(C3)OC[C@@H](C)O4)n2)cc1NC(=O)c1cnc2ccccn12` (stereo partly drawn) [F9] it is 52 nM.
`Cc1ccc(-c2noc(C3CC4(C3)OCCCO4)n2)cc1NC(=O)c1cnc2ccccn12` [F10]: the IC50 stood at 52 nM.
The same measure, in the same setting: the figure for `Cc1ccc(-c2noc(C3CC4(C3)OC[C@H](C)O4)n2)cc1NC(=O)c1cnc2ccccn12` (stereo partly drawn) [F12] is 12 nM; for `CCON=C1CC(c2nc(-c3ccc(C)c(NC(=O)c4cnc5ccccn45)c3)no2)C1` (stereo not drawn) [F14] it is 12 nM.
Regarding `Cc1ccc(-c2noc(C3CC(=NOCC4CC4)C3)n2)cc1NC(=O)c1cnc2ccccn12` (stereo not drawn) [F15], the 50% inhibitory concentration (IC50) turned out to be 35 nM.
Same read-out and setting: the figure for `Cc1ccc(-c2noc(C3CC(=NOC(C)C)C3)n2)cc1NC(=O)c1cnc2ccccn12` (stereo not drawn) [F16] is 66 nM; for `Cc1ccc(-c2noc([C@H]3C[C@H](N)C3)n2)cc1NC(=O)c1cnc2ccccn12` [F17] it is 109 nM.
The same measure, in the same setting: then `COCCO[C@H]1C[C@@H](c2nc(-c3ccc(C)c(NC(=O)c4cnc5ccccn45)c3)no2)C1` [F18, N-(5-(5-((1s,3s)-3-(2-methoxyethoxy)cyclobutyl)-1,2,4-oxadiazol-3-yl)-2-methylphenyl)imidazo[1,2-a]pyridine-3-carboxamide], with 25 nM; and `[2H]C([2H])([2H])O[C@H]1C[C@@H](c2nc(-c3ccc(C)c(NC(=O)c4cnc5ccccn45)c3)no2)C1` [F19], with 9 nM; and `COCC1(c2nc(-c3ccc(C)c(NC(=O)c4cnc5ccccn45)c3)no2)CC1` [F20], with 49 nM.
On to `Cc1ccc(-c2noc(C3(NC(=O)OC(C)(C)C)CC3)n2)cc1NC(=O)c1cnc2ccccn12` [F21], for which the IC50 was determined as 89 nM.
The same measure, in the same setting: the figure for `Cc1ccc(-c2noc(C3(NS(C)(=O)=O)CC3)n2)cc1NC(=O)c1cnc2ccccn12` [F22] is 56 nM; for `COC(=O)NC1(c2nc(-c3ccc(C)c(NC(=O)c4cnc5ccccn45)c3)no2)CC1` [F24] it is 58 nM.
Still for that read-out and setting: then `Cc1ccc(-c2noc(C3CC(O)(C(F)(F)F)C3)n2)cc1NC(=O)c1cnc2ccccn12` (stereo not drawn) [F25, N-(5-(5-(3-hydroxy-3-(trifluoromethyl)cyclobutyl)-1,2,4-oxadiazol-3-yl)-2-methylphenyl)imidazo[1,2-a]pyridine-3-carboxamide], with 13 nM.
On the same count and under the same terms, then `Cc1ccc(-c2noc(CNC(=O)OC3(C)CC3)n2)cc1NC(=O)c1cnc2ccccn12` [F26], with 58 nM; and `COC(=O)NC1(c2nc(-c3ccc(C)c(NC(=O)c4cnc5ccccn45)c3)no2)CCC1` [F27], with 69 nM; and `Cc1ccc(-c2noc(C3(NS(C)(=O)=O)CCC3)n2)cc1NC(=O)c1cnc2ccccn12` [F28], with 95 nM.
Regarding `Cc1ccc(-c2noc(C3(N(C)C)CC3)n2)cc1NC(=O)c1cnc2ccccn12` [F29, N-(5-(5-(1-(dimethylamino)cyclopropyl)-1,2,4-oxadiazol-3-yl)-2-methylphenyl)imidazo[1,2-a]pyridine-3-carboxamide], the 50% inhibitory concentration (IC50) was 58 nM.
Still for that read-out and setting: then `C=C1CC(c2nc(-c3ccc(C)c(NC(=O)c4cnc5ccccn45)c3)no2)C1` [F30], with 16 nM.
The same measure, in the same setting: the figure for `Cc1ccc(-c2noc(C3CC(O)(C4CC4)C3)n2)cc1NC(=O)c1cnc2ccccn12` (stereo not drawn) [F31, N-(5-(5-(3-cyclopropyl-3-hydroxycyclobutyl)-1,2,4-oxadiazol-3-yl)-2-methylphenyl)imidazo[1,2-a]pyridine-3-carboxamide] is 50 nM; for `Cc1ccc(-c2noc(C3CC(=CCCO)C3)n2)cc1NC(=O)c1cnc2ccccn12` (stereo not drawn) [F32, N-(5-(5-(3-(3-hydroxypropylidene)cyclobutyl)-1,2,4-oxadiazol-3-yl)-2-methylphenyl)imidazo[1,2-a]pyridine-3-carboxamide] it is 25 nM; for `Cc1ccc(-c2noc(C3CC4(CCCO4)C3)n2)cc1NC(=O)c1cnc2ccccn12` (stereo not drawn) [F33] it is 88 nM.
On the same count and under the same terms, then `Cc1ccc(-c2noc(CNC3CC(F)(F)C3)n2)cc1NC(=O)c1cnc2ccccn12` [F34], with 16 nM.
As to `Cc1ccc(-c2noc(COC3CC(F)(F)C3(F)F)n2)cc1NC(=O)c1cnc2ccccn12` (stereo not drawn) [F35], the IC50 was 3 nM.
As for `Cc1ccc(-c2noc(C3CC(F)C3)n2)cc1NC(=O)c1cnc2ccccn12` (stereo not drawn) [F36, N-(5-(5-(3-fluorocyclobutyl)-1,2,4-oxadiazol-3-yl)-2-methylphenyl)imidazo[1,2-a]pyridine-3-carboxamide], the 50% inhibitory concentration (IC50) was found to be 28 nM.
Regarding `Cc1ccc(-c2noc(C3CC(F)(F)C3)n2)cc1NC(=O)c1cnc2ccc(CO)cn12` [F37, N-(5-(5-(3,3-difluorocyclobutyl)-1,2,4-oxadiazol-3-yl)-2-methylphenyl)-6-(hydroxymethyl)imidazo[1,2-a]pyridine-3-carboxamide], the IC50 is 60 nM.
With `Cc1ccc(-c2noc(C3CC(F)(F)C3)n2)cc1NC(=O)c1cnc2ccc(COCCO)cn12` [F38], the IC50 was 25 nM.
Still for that read-out and setting: the figure for `COCc1ccc2ncc(C(=O)Nc3cc(-c4noc(C5CC(F)(F)C5)n4)ccc3C)n2c1` [F39] is 37 nM.

The same test, now with this note: Mo7e cells stimulated with human recombinant SCF, 48 hours, 20% FBS (values marked *).
`Cc1ccc(-c2noc(C3CCC(=O)C3)n2)cc1NC(=O)c1cnc2ccccn12` (stereo not drawn) [F2]: the IC50 was 58 nM.
The same measure, in the same setting: the figure for `Cc1ccc(-c2noc(C3CC(C)(O)C3)n2)cc1NC(=O)c1cnc2ccccn12` (stereo not drawn) [F3] is 164 nM.
On the same count and under the same terms, the figure for `Cc1ccc(-c2noc(C3CC(=O)C3)n2)cc1NC(=O)c1cnc2ccccn12` [F11] is 41 nM.
